Measurements as given in ChEMBL document CHEMBL4507319 (2021).

Tests used:
[1] = molecular target: Casein kinase I isoform gamma-2 (Homo sapiens) (UniProt P78368); assay: CK1gamma2(h) Eurofins kinase panel; conditions: Compound concentration 1.0 uM
[2] = molecular target: Mitogen-activated protein kinase kinase kinase 20 (Homo sapiens) (UniProt Q9NYL2); assay: ZAK(h) Eurofins kinase panel; conditions: Compound concentration 1.0 uM
JJN-3 = assay: JJN3 cell line Proliferation assay; type: functional, Homo sapiens; conditions: time 3 day
[3] = molecular target: 5'-AMP-activated protein kinase catalytic subunit alpha-2 (Homo sapiens, UniProt P54646)
Sequence of 5'-AMP-activated protein kinase catalytic subunit alpha-2 (P54646 whole entry): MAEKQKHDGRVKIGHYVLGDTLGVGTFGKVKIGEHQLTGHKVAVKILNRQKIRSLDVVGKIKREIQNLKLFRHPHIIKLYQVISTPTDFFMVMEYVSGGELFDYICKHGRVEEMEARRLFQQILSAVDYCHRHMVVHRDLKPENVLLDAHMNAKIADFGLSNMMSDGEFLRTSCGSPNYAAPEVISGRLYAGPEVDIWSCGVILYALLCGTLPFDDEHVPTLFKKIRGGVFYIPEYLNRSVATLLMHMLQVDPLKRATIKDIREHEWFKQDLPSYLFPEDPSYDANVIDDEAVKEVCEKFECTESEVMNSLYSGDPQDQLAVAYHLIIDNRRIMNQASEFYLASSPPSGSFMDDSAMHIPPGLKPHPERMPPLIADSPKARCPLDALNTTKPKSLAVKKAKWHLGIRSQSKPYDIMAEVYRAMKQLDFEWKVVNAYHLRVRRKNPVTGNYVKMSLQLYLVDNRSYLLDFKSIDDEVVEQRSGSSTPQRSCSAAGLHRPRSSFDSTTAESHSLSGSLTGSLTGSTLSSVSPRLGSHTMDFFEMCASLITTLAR

[4] = molecular target: High affinity nerve growth factor receptor (Homo sapiens) (UniProt P04629); assay: TrkA(h) Eurofins kinase panel; conditions: Compound concentration 1.0 uM
Sequence of High affinity nerve growth factor receptor (Homo sapiens) (P04629 33-796 limits assumed): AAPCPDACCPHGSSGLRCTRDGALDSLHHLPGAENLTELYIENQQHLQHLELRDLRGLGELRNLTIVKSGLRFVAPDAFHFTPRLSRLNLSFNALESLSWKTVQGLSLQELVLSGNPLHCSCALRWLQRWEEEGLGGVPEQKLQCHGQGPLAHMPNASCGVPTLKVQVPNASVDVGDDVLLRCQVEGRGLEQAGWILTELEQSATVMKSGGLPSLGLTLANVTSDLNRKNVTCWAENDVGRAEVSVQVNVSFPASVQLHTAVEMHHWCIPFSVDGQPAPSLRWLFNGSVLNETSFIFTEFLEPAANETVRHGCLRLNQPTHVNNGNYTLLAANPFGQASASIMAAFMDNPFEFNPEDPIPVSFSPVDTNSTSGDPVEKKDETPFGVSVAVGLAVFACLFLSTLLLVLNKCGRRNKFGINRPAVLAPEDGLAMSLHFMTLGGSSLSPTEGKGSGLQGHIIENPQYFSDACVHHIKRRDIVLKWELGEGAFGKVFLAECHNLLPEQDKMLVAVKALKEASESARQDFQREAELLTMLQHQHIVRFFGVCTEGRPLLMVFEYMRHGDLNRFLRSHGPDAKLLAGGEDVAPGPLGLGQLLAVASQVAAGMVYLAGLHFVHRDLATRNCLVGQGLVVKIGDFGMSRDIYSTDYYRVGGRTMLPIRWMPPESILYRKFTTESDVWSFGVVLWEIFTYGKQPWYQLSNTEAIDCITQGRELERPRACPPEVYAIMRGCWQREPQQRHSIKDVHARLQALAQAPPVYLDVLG

[5] = molecular target: T1, Serine/threonine-protein kinase tousled-like 1 (Homo sapiens) (UniProt Q9UKI8); assay: TLK1(h) Eurofins kinase panel; conditions: Compound concentration 1.0 uM
T1 sequence (whole entry): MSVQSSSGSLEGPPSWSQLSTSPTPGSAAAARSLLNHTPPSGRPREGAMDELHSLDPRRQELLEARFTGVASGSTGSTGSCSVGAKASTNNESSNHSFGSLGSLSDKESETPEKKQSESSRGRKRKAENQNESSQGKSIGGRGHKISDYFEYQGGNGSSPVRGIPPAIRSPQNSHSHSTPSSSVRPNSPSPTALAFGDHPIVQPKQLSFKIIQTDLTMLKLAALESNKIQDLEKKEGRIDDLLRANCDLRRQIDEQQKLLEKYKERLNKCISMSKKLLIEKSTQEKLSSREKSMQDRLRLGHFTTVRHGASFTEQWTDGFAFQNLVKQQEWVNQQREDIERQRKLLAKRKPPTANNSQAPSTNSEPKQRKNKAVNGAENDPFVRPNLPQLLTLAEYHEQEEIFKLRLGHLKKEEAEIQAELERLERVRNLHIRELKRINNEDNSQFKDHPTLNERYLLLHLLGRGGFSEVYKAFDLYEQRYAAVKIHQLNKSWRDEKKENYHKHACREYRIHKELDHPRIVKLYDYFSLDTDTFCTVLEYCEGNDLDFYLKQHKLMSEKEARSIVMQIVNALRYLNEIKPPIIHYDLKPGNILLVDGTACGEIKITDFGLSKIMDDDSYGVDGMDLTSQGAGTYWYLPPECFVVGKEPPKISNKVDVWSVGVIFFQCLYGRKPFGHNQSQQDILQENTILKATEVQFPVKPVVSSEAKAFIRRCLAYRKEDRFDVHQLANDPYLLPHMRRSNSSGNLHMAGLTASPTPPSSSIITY

[6] = molecular target: Activated CDC42 kinase 1 (Homo sapiens) (UniProt Q07912); assay: ACK1(h) Eurofins kinase panel; conditions: Compound concentration 1.0 uM
Sequence of Activated CDC42 kinase 1 (Homo sapiens) (Q07912 whole entry, looked up): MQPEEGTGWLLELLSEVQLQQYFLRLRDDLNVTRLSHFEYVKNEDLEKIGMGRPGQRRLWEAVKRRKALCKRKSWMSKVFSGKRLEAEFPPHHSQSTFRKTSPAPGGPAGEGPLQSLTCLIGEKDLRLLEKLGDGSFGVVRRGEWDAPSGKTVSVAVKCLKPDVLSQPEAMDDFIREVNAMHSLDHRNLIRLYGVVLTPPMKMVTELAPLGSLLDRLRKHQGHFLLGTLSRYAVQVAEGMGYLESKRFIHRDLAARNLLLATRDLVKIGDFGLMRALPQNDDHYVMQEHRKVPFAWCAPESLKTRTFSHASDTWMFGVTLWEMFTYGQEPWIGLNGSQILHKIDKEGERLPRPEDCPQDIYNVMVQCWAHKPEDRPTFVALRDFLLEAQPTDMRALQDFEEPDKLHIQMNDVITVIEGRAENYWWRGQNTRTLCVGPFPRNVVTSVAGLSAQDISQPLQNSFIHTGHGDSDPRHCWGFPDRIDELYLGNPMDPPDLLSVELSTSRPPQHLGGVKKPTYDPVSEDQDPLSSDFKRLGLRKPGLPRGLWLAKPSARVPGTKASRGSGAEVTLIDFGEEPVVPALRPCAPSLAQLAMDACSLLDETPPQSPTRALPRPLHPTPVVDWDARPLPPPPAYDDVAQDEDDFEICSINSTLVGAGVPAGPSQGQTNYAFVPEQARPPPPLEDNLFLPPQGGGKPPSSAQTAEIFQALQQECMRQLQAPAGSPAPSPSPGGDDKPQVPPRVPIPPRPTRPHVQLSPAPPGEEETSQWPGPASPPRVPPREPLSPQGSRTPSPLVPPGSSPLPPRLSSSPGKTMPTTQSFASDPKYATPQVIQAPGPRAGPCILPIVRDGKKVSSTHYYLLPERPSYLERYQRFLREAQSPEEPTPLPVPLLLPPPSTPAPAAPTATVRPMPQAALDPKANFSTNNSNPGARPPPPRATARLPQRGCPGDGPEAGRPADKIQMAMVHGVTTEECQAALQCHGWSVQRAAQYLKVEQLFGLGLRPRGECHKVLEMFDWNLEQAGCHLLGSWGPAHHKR

[7] = molecular target: T2, Tyrosine-protein kinase JAK3 (Homo sapiens) (UniProt P52333); assay: JAK3(h) Eurofins kinase panel; conditions: Compound concentration 1.0 uM
T2 sequence (whole entry): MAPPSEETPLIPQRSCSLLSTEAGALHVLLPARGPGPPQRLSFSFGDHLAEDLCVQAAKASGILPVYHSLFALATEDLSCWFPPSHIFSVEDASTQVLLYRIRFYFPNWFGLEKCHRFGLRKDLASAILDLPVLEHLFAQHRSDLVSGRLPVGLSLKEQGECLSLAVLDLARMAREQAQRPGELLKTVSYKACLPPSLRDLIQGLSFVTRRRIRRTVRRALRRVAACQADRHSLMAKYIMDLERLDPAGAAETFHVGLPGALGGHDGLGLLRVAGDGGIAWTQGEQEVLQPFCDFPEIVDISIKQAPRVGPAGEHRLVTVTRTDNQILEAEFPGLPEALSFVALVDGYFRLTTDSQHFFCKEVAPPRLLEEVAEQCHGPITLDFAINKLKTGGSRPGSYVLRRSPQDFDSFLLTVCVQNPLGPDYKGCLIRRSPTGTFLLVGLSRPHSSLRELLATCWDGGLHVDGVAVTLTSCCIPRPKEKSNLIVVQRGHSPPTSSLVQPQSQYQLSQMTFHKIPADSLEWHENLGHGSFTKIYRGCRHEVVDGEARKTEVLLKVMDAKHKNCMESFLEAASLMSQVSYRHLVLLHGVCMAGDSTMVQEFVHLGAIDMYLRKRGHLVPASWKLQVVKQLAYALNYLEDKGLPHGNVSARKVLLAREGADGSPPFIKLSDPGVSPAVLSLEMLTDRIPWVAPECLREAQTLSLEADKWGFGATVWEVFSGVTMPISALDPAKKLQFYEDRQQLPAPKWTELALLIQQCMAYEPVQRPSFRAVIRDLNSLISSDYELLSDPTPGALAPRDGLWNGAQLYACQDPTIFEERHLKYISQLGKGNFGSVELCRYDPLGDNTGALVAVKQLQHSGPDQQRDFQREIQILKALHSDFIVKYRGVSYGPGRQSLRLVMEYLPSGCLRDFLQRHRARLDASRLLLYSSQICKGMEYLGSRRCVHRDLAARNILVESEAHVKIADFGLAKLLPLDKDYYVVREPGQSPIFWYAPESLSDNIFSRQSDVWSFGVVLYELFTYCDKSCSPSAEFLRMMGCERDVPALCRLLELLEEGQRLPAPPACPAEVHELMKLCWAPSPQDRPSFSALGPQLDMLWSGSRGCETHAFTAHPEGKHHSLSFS

[8] = molecular target: T3, Serine/threonine-protein kinase Nek3 (Homo sapiens) (UniProt P51956); assay: NEK3(h) Eurofins kinase panel; conditions: Compound concentration 1.0 uM
T3 sequence (whole entry): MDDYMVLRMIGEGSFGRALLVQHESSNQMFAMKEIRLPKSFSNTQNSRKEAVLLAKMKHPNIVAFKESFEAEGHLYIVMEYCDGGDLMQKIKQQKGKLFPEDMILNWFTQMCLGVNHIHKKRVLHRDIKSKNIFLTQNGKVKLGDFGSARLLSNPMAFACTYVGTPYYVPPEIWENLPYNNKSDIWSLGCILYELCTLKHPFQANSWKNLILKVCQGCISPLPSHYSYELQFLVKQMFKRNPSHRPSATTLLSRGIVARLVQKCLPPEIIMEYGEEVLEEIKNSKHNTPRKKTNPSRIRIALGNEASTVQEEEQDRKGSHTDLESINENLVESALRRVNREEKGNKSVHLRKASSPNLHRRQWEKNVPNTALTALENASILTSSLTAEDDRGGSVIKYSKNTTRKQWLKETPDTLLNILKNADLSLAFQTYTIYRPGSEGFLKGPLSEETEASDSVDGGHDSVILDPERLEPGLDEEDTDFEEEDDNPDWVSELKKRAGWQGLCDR

Sequence of Casein kinase I isoform gamma-2 (Homo sapiens) (P78368 whole entry, looked up, canonical isoform): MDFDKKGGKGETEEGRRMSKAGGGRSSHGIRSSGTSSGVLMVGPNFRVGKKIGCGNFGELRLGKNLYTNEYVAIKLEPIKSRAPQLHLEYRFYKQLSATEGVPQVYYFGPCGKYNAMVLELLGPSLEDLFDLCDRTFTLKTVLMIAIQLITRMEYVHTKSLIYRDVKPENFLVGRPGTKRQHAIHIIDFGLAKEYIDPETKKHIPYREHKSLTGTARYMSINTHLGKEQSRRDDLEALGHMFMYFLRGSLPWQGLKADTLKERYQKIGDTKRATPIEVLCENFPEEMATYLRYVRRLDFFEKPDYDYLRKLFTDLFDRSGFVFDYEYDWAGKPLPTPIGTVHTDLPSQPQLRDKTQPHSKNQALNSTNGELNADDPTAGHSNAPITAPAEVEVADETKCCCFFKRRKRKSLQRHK
Sequence of Mitogen-activated protein kinase kinase kinase 20 (Homo sapiens) (Q9NYL2 2-800 limits assumed): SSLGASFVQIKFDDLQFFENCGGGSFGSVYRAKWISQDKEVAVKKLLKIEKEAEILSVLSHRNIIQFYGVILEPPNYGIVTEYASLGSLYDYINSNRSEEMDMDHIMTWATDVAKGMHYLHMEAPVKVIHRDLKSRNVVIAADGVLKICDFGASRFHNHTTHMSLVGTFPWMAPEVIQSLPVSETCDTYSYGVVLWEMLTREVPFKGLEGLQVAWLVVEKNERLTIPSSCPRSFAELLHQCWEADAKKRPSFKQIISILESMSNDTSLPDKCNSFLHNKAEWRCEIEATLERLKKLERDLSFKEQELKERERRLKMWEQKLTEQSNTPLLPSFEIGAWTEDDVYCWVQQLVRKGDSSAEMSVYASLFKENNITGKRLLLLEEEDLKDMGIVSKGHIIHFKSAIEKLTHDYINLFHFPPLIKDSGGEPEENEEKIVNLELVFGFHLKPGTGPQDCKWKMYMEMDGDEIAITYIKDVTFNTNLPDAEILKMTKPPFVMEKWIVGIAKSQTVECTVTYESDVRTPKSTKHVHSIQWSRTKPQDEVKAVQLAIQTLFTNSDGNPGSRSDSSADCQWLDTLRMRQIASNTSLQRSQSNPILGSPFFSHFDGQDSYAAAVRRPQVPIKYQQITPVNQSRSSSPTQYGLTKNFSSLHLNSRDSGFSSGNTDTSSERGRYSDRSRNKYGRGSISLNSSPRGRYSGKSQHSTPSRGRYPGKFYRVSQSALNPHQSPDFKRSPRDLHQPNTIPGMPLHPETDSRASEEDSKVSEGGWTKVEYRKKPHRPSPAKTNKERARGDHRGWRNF

CCc1ccccc1C(=O)Nc1n[nH]c2c(C)c(F)c(C3C(C#N)=C(C)N(C)C(C)=C3C#N)cc12 [BAY-3827]
% residual kinase activity [1]: 98%
% residual kinase activity [2]: 99%
Cell Proliferation IC50 (JJN-3): >20000 nM
IC50 [3]: 7 nM
% residual kinase activity [4]: 60%
% residual kinase activity [5]: 103%
% residual kinase activity [6]: 94%
% residual kinase activity [7]: 93%
% residual kinase activity [8]: 102%
